Here are results for two compounds from patent US11440904B2, “Substituted pyrimidines, pharmaceutical compositions and therapeutic methods thereof” (priority 2017, dated 2022).

Structures are written as SMILES. “And” between values parts separate entries of the source, which are not always exact repeats. Equal entries are not always repeated.

The target in one experiment is EGFR wt (Homo sapiens (Human), UniProt P00533). The experiment can be described thus: 33P ATP HotSpot kinase assay, EGFR wt. It is filed as biochemical. The following applies: 10 μM ATP.
A further experiment has as its target ITK (Homo sapiens (Human), UniProt Q08881). The experiment can be described thus: 33P ATP HotSpot kinase assay, ITK. The note with it: 10 μM ATP. It is filed as biochemical. The procedure: (§1) (See, e.g., Ma, et al, 2008 Expert Opin Drug Discov. 3(6): 607-621.)
(§2) Each of Compound-1 to Compound-24 was measured for its inhibitory activity on TEC family kinases, BMX and ITK. The measurement was carried out in the same process as described above, BMX, ITK enzymes were used.

For another experiment, the target named is BTK wt (Homo sapiens (Human), UniProt Q06187). The experiment can be described thus: 33P ATP HotSpot kinase assay, BTK wt. It counts as biochemical. The following applies: 10 μM ATP.
Text: as §1

For another experiment, the target named is ERK1 kinase (Homo sapiens (Human), UniProt P27361). The experiment can be described thus: 33P ATP HotSpot kinase assay, ERK1. The note with it: 10 μM ATP. It counts as biochemical. The procedure:
as §1
Certain compounds of Compound-1 to Compound-24 were measured for its inhibitory activity on ERK1 kinase. The measurement was carried out in the same process as described above, ERK enzyme was used.

Another experiment has as its system MDA-MB-231 cells. The experiment can be described thus: Cancer cell growth inhibition, MDA-MB-231. It counts as cell-based. The following applies: Homo sapiens, 72 hr, cell viability. The procedure: (§3) In order to test certain compounds of Compounds 1 to 24 for cancer cell growth inhibition, a leukemia cancer cell line EOL-1, and triple negative breast cancer cell line MDA-MB-231 was used.
(§4) EOL-1 and MDA-MB-231 cells were cultured in a RPMI-1640 cell culture medium supplemented with 10% fetal bovine serum (FBS) and 1% penicillin/streptomycin (Gibco BRL).
(§5) The cancer cell lines stored in a liquid nitrogen tank were each quickly thawed at 37° C. water bath, and centrifuged to remove the DMSO in the freezing medium. The resulting cell pellet was mixed with a culture medium, incubated in a culture flask at 37° C. under 5% CO2 for 2 to 3 days. The EOL-1 cells were sub-cultured by 1:5˜10 dilution in fresh culture medium. For MD-MB-231 cells, the culture medium was removed and the remaining cells were washed with PBS (Phosphate Buffered Saline) and trypsinized by trypsin-EDTA. The detached cells were sub-cultured by 1:5˜10 dilution in fresh culture medium.
(§6) For the cell growth inhibition assay, the cells were seeded in 96-well cell culture plates at 5×10^4 cells/well for EOL-1 and 5×10^3 cells/well for MDA-MB-231 cells in 50 μL and incubated at 37° C. under 5% CO2 for 3 to 6 hr. before the compounds were added.
(§7) Certain compounds of Compounds 1-24 were dissolved in dimethylsulfoxide (DMSO) to a concentration of 10 mM. The DMSO solution containing test compound was diluted with a culture medium to a final concentration of 600 μM, and then diluted 100 times to 6 μM as top dose followed by 1:3 serial dilutions, and then add 50 μL diluted compounds to the 50 μL cells, with a final top dose at 3 μM and the plate was incubated at 37° C. under 5% CO2 for 72 hr. The cell viability was determined by Cell Meter™ Fluorimetric Cell Cytotoxicity Assay Kit (AAT Bioquest) according to the manufacturer's instructions. Briefly, thaw and warm up the Assay Solution (Component A) to 37° C., and mix it thoroughly. Add 20 μL/well (96-well plate) of Assay Solution (Component A). Mix the reagents by shaking the plate gently for 30 seconds. Incubate the cells in a 37° C., 5% CO2 incubator for 1-24 hr., protected from light. Monitor the fluorescence intensity (bottom read) at Ex/Em=540/590 nm. Alternatively, read the O.D. at 570 nm (the reference wavelength should be 600 nm) to determine the cell viability in each well.

For a further experiment, the system named is EOL-1 cells. The experiment can be described thus: Cancer cell growth inhibition, EOL-1. The following applies: Homo sapiens, EOL1, 72 hr, cell viability. It counts as cell-based. Here is the method: as §3, §4, §5, §6, §7
The target in another experiment is FAK (Homo sapiens (Human), UniProt Q05397). The experiment can be described thus: 33P ATP HotSpot kinase assay, FAK. The note with it: read-out: IC50 FAK, 10 μM ATP.
For experiment [1], the system named is ERK phosphorylation at T202/Y204. The experiment can be described thus: Cell-based ERK1/2 (T202/Y204) phosphorylation ELISA in EOL-1 cells. The note with it: 3 hr or 15 hr treatment, read-out: EC50 phospho-ERK1/2 (T202/Y204). The procedure:
EOL-1 cells were cultured in RPMI-1640 medium with 10% fetal bovine serum (FBS) and 1% penicillin/streptomycin (Gibco BRL). Before the assay, EOL-1 cells were counted and seeded at 1×10^6 cells/well in a 6-well plate, cultured overnight in RPMI-1640 medium with 10% FBS. The cells were treated with certain compounds of Compounds 1-24 at 0˜3 μM for 3 hr. or 15 hr. at 37° C., then the cells were harvested, followed by 5 min. spin at 2000 rpm. After aspirating the supernatant, the cells were washed with cold PBS, span again, then 100 μL of RIPA lysis buffer (50 mM Tris-HCl, 1 mM EDTA, 1% NP-40, 0.5% sodium deoxycholate, and 0.1% SDS, pH 7.4, 150 mM NaCl, 1 mM Na3VO4) was added to the cell pellet to lyse the cells on ice for 30 min. After spin at 12,000 rpm for 5 min., 90 μL of the cell lysate was transferred to a fresh tube.
For an enzyme-linked immunosorbent assay (ELISA) assay, 10 μL of the lysate was used for p-ERK1/2 (T202/Y204) elisa assay. ELISA was done using the ERK 1/2 (pT202/Y204 +Total) ELISA Kit (Abcam, ab176660) according to the manufacturer's instructions. Specifically, add 50 μL of all samples or standards to appropriate wells. Add 50 μL of the Antibody Cocktail to each well. Seal the plate and incubate for 1 hr. at r.t. on a plate shaker set to 400 rpm. Wash each well with 3×350 μL 1× Wash Buffer PT. […] This is an endpoint reading.

For experiment [2], the target named is BTK phosphorylation at tyrosine 223 (Homo sapiens (Human), UniProt Q06187). The experiment can be described thus: Immunoblot analysis of phospho-BTK(Y223) in Ramos cells. It is filed as cell-based. The note with it: 1 hr treatment, anti-IgM stimulation, western blot. The procedure:
Ramos cells were cultured in RPMI-1640 medium with 10% fetal bovine serum (FBS) and 1% penicillin/streptomycin (Gibco BRL). Before the assay, Ramos cells were counted and seeded at 1×10^6 cells/mL, cultured overnight in RPMI-1640 medium with 10% FBS, the cells were centrifuged at 950 rpm for 10 min., then 1˜2×10^6 cells were split into each tube in 300 μL medium. The cells were treated with certain compounds of Compound 1-24 at 0˜3 μM for 1 hr. in 37° C., then the cells were stimulated with 10 μg/mL of anti-IgM (BioLegend) for 5 min., followed by 3 min. spin at 2000 rpm. After aspirating the supernatant, 60 μL of RIPA lysis buffer (50 mM Tris-HCl, 1 mM EDTA, 1% NP-40, 0.5% sodium deoxycholate, and 0.1% SDS, pH 7.4, 150 mM NaCl, 1 mM Na3VO4) was added to the cell pellet to lyse the cells on ice for 30 min. After spin at 10,000 rpm for 5 min., 60 μL of the cell lysate was transferred to a fresh tube, and 20 μL of 4× LDS buffer was added to the tube. The samples were boiled on a 100° C. heat block for 10 min. 25 μL lysate was loaded on to SDS-PAGE gel (NuPAGE™ Novex™ 4-12% Bis-Tris Midi Protein Gels, cat. no. WG1402BOX, ThermoFisher) for western blotting analysis per the manufacturer's instructions. Antibodies used for immunoblot analysis include Btk and p-Btk(Y223) (cat. no. 3553 and 5082; Cell Signaling Technology, Beverly, Mass.). p-Btk(Y223) (cat. no. GTX61791; GeneTex, Inc., Irvine, Calif.). Membranes were detected using infrared fluorescence dye (IRDye® 800CW Donkey anti-Rabbit IgG (H+L), cat. no. P/N 925-32213; IRDye® 680RD Donkey anti-Mouse IgG (H+L), cat. no. P/N 925-68072 and scanned on a LiCor Odyssey scanner (LiCor Biosciences, Lincoln, Nebr.).

For another experiment, the target named is BMX (Homo sapiens (Human), UniProt P51813). The experiment can be described thus: 33P ATP HotSpot kinase assay, BMX. It is filed as biochemical. The following applies: 10 μM ATP. Here is the method:
as §1, §2

Experiment [3] deals with FAK phosphorylation at tyrosine 397 (Homo sapiens (Human), UniProt Q05397). The experiment can be described thus: Cell-based FAK(Y397) phosphorylation ELISA in PC3 cells. The note with it: 1 hr treatment, read-out: EC50 phospho-FAK(Y397).
Chain of FAK phosphorylation at tyrosine 397 (Q05397 whole entry): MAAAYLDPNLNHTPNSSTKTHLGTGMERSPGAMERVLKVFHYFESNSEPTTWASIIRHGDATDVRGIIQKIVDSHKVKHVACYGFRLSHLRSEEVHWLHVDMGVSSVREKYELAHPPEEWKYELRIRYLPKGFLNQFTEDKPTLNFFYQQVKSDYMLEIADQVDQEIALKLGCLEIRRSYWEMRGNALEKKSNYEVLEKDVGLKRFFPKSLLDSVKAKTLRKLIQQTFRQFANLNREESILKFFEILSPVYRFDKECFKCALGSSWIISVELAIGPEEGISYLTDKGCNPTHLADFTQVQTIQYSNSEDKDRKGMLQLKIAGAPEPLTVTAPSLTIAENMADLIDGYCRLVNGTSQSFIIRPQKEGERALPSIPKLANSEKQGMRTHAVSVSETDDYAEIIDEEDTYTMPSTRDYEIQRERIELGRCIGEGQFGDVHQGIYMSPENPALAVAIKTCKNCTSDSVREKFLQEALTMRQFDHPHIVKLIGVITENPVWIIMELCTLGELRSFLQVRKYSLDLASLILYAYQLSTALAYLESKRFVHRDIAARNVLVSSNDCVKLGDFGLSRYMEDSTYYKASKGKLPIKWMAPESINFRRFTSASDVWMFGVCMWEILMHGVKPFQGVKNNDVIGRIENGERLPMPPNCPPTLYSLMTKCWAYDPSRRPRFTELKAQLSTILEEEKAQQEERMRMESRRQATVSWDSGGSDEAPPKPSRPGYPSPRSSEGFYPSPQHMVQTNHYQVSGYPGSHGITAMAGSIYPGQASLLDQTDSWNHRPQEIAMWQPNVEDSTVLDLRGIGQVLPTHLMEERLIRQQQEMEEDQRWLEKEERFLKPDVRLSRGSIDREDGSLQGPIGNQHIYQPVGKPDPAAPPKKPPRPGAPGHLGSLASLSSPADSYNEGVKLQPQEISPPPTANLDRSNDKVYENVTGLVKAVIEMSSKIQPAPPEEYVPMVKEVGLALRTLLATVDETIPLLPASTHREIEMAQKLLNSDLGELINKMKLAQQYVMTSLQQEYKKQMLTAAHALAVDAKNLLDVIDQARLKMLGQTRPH
Experimental: After aspirating the supernatant, 100 μL of RIPA lysis buffer (50 mM Tris-HCl, 1 mM EDTA, 1% NP-40, 0.5% sodium deoxycholate, and 0.1% SDS, pH 7.4, 150 mM NaCl, 1 mM Na3VO4) was added to the cell pellet to lyse the cells on ice for 30 min. After spin at 12,000 rpm for 5 min., 90 μL of the cell lysate was transferred to a fresh tube.
For an enzyme-linked immunosorbent assay (ELISA) assay, 10 μL of the lysate was used for p-FAK(Y397) elisa assay. ELISA was done using the FAK [pY397] Phospho-ELISA Kit (ThermoFisher Scientific, KHO0441) according to the manufacturer's instructions. […] During the first incubation, 50 μL standards of known p-FAK (Y397) content and compound treated samples (10 μL lysate) plus 40 μL diluent buffer were pipetted into the wells and let the p-FAK antigen standards and samples bind to the immobilized (capture) antibody on the plate, a rabbit antibody specific for p-FAK (Y397) 50 μL/well was added to the wells, this antibody serves as a detection antibody by binding to the p-FAK protein during a 3 hr. incubation at room temperature. After washing 4 times, a horseradish peroxidase labeled anti-rabbit IgG was added. This binds to the detection antibody. After a 30 min. incubation and washing to remove all the unbound enzyme, a substrate solution (TMB) was added, which was acted upon by the bound enzyme to produce color.

Chain of EGFR wt (P00533 25-1210): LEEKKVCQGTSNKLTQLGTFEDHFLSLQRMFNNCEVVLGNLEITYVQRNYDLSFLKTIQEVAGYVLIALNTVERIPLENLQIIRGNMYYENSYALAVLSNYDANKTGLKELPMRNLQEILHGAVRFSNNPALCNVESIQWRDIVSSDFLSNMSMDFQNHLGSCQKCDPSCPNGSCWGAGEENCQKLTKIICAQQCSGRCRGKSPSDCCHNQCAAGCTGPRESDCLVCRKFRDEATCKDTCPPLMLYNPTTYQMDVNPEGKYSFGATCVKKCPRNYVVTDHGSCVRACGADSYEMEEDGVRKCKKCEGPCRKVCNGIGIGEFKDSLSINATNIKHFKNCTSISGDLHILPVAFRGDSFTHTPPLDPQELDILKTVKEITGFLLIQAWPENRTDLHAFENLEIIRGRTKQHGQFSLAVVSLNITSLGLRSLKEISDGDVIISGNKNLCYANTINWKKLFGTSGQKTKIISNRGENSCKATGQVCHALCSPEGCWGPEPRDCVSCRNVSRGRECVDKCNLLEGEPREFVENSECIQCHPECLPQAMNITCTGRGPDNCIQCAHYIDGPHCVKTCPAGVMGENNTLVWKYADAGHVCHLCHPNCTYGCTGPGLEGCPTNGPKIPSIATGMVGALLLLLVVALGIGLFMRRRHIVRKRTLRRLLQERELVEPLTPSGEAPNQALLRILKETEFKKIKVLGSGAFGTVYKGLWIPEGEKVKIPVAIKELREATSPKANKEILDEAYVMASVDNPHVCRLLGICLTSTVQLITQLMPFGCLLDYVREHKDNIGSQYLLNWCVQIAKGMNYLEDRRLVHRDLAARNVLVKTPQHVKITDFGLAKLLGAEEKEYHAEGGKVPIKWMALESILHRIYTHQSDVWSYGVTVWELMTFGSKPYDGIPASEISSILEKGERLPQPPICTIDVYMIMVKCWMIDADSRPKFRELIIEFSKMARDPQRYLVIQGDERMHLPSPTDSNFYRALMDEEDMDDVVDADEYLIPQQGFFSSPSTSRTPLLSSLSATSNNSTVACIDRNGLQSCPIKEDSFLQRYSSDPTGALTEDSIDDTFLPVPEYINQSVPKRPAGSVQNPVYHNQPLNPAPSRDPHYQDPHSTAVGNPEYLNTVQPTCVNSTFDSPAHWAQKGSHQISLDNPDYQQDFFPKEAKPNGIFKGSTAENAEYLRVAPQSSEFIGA
Chain of BMX (P51813 whole entry): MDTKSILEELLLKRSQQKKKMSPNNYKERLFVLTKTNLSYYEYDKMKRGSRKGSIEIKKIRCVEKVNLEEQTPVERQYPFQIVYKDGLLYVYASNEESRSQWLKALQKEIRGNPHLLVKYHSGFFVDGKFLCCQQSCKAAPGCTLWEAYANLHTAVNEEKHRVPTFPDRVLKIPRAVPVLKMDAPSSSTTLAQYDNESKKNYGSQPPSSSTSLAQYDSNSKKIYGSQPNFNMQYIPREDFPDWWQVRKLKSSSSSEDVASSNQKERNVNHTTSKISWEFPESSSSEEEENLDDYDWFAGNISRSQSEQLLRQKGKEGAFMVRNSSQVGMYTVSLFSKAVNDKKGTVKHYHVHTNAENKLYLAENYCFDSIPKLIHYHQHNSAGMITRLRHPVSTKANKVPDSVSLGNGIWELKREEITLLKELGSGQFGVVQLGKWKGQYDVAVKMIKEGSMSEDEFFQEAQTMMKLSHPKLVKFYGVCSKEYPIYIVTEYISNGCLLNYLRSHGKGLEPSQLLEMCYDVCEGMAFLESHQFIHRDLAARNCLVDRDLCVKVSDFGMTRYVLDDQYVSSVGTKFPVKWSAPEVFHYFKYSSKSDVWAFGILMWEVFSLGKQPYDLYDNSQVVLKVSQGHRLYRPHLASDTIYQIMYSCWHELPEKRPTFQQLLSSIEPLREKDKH
Chain of FAK (Q05397 whole entry): as the sequence (Q05397 whole entry) above
Chain of ERK1 kinase (P27361 whole entry): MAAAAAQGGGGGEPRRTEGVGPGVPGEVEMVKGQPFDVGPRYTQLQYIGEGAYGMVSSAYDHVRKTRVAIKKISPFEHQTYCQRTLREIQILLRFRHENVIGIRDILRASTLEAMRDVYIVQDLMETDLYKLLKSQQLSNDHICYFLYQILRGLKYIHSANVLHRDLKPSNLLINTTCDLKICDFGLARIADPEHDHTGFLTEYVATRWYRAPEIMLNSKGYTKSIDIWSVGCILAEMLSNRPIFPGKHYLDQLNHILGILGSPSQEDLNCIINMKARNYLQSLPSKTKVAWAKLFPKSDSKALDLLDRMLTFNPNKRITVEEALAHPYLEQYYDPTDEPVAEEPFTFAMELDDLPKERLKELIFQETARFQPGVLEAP
Chain of ITK (Q08881 whole entry): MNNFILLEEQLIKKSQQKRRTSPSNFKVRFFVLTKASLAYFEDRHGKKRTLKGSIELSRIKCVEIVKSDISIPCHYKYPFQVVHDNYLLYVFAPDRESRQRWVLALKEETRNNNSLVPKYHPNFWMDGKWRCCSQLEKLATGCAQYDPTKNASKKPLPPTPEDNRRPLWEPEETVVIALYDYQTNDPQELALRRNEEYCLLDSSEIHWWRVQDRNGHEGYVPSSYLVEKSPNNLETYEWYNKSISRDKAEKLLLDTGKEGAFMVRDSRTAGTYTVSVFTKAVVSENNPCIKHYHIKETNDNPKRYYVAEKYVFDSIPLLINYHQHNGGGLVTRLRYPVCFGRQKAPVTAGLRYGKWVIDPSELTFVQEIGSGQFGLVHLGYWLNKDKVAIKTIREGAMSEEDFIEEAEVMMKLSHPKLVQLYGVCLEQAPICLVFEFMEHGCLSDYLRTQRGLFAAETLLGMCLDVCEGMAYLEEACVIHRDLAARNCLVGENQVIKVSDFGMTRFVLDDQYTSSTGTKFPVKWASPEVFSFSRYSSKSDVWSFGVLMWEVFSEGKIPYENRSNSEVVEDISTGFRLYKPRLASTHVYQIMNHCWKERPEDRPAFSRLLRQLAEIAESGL
Chain of BTK phosphorylation at tyrosine 223 (Q06187 whole entry): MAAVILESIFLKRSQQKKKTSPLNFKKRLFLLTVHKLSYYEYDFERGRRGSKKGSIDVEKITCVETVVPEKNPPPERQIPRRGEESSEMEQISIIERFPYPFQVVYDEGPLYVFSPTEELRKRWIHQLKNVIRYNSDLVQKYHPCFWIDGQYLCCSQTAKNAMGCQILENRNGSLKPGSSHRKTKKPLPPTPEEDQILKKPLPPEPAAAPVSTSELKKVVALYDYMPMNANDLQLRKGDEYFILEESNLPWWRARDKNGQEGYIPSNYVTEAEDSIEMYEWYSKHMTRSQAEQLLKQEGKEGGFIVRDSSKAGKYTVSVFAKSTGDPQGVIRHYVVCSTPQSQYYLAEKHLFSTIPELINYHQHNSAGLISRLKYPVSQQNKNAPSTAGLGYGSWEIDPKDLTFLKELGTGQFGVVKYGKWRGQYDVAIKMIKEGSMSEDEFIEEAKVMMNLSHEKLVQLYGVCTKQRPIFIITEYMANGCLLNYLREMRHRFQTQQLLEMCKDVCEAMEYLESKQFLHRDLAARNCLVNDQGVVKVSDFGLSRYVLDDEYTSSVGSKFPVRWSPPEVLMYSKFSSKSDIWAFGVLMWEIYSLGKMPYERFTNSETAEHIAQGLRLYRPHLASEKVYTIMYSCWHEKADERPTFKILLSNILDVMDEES
Chain of BTK wt (Q06187 whole entry): as above
Experimental for EGFR wt: Then, Kinase assays were performed using the “HotSpot” assay platform.
Briefly, specific kinase/substrate pairs along with required cofactors were prepared in reaction buffer; 20 mM Hepes pH 7.5, 10 mM MgCl2, 1 mM EGTA, 0.02% Brij35, 0.02 mg/ml BSA, 0.1 mM Na3VO4, 2 mM DTT, 1% DMSO. Compounds were delivered into the reaction, followed about 20 minutes later by addition of a mixture of ATP (Sigma, St. Louis Mo.) and ^33P ATP (Perkin Elmer, Waltham Mass.) to a final concentration of 10 μM.
Reactions were carried out at room temperature for 120 min, followed by spotting of the reactions onto P81 ion exchange filter paper (Whatman Inc., Piscataway, N.J.). Unbound phosphate was removed by extensive washing of filters in 0.75% phosphoric acid. […] IC50 values and curve fits were obtained using Prism (GraphPad Software).

Consider `C=CC(=O)Nc1ccccc1Nc1nc(Nc2ccc3c(c2)OCCOCCOCCO3)nc2[nH]cnc12` [Compound-11, N-[2-[[2-(2,5,8,11-tetraoxabicyclo[10.4.0]hexadeca-1(12),13,15-trien-14-ylamino)-9H-purin-6-yl]amino]phenyl]prop-2-enamide], for which the IC50 (commonly the concentration needed to halve the response being measured) is 1900 nM and > 1000 nM against EGFR wt; 270 nM on ITK; 2.33 nM on BTK wt; 6.23 nM on ERK1 kinase; 300 nM in the experiment with MDA-MB-231 cells; 25 nM in the experiment with EOL-1 cells. In addition, the IC50 on FAK came to 17.4 nM; at BMX, 1.21 nM. The EC50 in experiment [1] is < 100 nM; in experiment [2], 100 to 1000 nM; in experiment [3] it was < 100 nM.
Turning to `CCC(=O)Nc1ccccc1Nc1nc(Nc2ccc3c(c2)OCCOCCOCCO3)nc2[nH]cnc12` [Compound-12, N-[2-[[2-(2,5,8,11-tetraoxabicyclo[10.4.0]hexadeca-1(12),13,15-trien-14-ylamino)-9H-purin-6-yl]amino]phenyl]propanamide], the IC50 on EGFR wt was > 1000 nM; against ITK it was 447 nM; on BTK wt it was 4.36 nM; against ERK1 kinase, 714 nM; with MDA-MB-231 cells, > 3000 nM; in the experiment with EOL-1 cells, 2400 nM. Further, the IC50 on FAK was 24.6 nM; against BMX it was 2.7 nM. In addition, the EC50 is 1000 to 3000 nM in experiment [1] and 100 to 1000 nM in experiment [2].
